Data as given in patent US20230085307A1, “PYRIDAZINONE COMPOUND AND HERBICIDE” (NISSAN CHEMICAL CORPORATION, priority 2019, published 2023).

Key:
windgrass [1] = test: Test Example 5: herbicidal effect by foliage application, plastic box (Table 20, symbol L); assay type: in vivo, windgrass (Apera spica-venti); conditions: foliage application, 320 g/ha, three weeks after application
Method in brief: (§1)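 Foliar spray test: emulsion formulation diluted in water to a set application rate, sprayed onto 14-day-old plants raised in diluvial soil at 25° C to 30° C under glass. Both herbicidal effect and crop effect rated visually three weeks later.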

velvetleaf [2] = test: Test Example 5: herbicidal effect by foliage application, plastic box (Table 20, symbol M); assay type: in vivo, velvetleaf (Abutilon theophrasti); conditions: foliage application, 320 g/ha, three weeks after application
Method in brief: as §1

barnyard grass [3] = test: Test Example 4: herbicidal effect by soil treatment (Table 19, symbol H); assay type: in vivo, barnyard grass (Echinochloa crus-galli); conditions: amount of applied herbicide 320 g/ha
Method in brief: (§2)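 Herbicidal effect was rated 3 weeks after treatment, using the scoring criteria of an earlier test. The compound, formulated as an emulsion and diluted in water to a set herbicide amount, had been sprayed uniformly on soil over freshly sown seeds. Growth took place in a greenhouse at 25° C. to 30° C.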

lambsquarters [4] = test: Test Example 4: herbicidal effect by soil treatment (Table 19, symbol O); assay type: in vivo, lambsquarters (Chenopodium album); conditions: amount of applied herbicide 320 g/ha
Method in brief: as §2

lambsquarters [5] = test: Test Example 5: herbicidal effect by foliage application, plastic box (Table 20, symbol O); assay type: in vivo, lambsquarters (Chenopodium album); conditions: foliage application, 320 g/ha, three weeks after application
Method in brief: as §1

windgrass [6] = test: Test Example 4: herbicidal effect by soil treatment (Table 19, symbol L); assay type: in vivo, windgrass (Apera spica-venti); conditions: amount of applied herbicide 320 g/ha
Method in brief: as §2

redroot pigweed [7] = test: Test Example 5: herbicidal effect by foliage application, plastic box (Table 20, symbol N); assay type: in vivo, redroot pigweed (Amaranthus retroflexus); conditions: foliage application, 320 g/ha, three weeks after application
Method in brief: as §1

rice flat sedge = test: Test Example 3: herbicidal effect by foliage application, Wagner pot (Table 18, symbol E); assay type: in vivo, rice flat sedge (Cyperus iria); conditions: 320 g/ha
Method in brief: (§3)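 Plants were sown in alluvial soil held under 0.1–0.5 cm standing water and grown 14 days in a greenhouse at 25–30 °C. An emulsifiable formulation, water-diluted to the set dose, was then sprayed onto the foliage, and effects were scored three weeks later using previously defined criteria.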

persian speedwell [8] = test: Test Example 4: herbicidal effect by soil treatment (Table 19, symbol R); assay type: in vivo, Persian speedwell (Veronica persica); conditions: amount of applied herbicide 320 g/ha
Method in brief: as §2

green foxtail [9] = test: Test Example 5: herbicidal effect by foliage application, plastic box (Table 20, symbol G); assay type: in vivo, green foxtail (Setaria viridis); conditions: foliage application, 320 g/ha, three weeks after application
Method in brief: as §1

persian speedwell [10] = test: Test Example 5: herbicidal effect by foliage application, plastic box (Table 20, symbol R); assay type: in vivo, Persian speedwell (Veronica persica); conditions: foliage application, 320 g/ha, three weeks after application
Method in brief: as §1

false cleavers [11] = test: Test Example 4: herbicidal effect by soil treatment (Table 19, symbol Q); assay type: in vivo, false cleavers (Galium spurium); conditions: amount of applied herbicide 320 g/ha
Method in brief: as §2

wild oat [12] = test: Test Example 5: herbicidal effect by foliage application, plastic box (Table 20, symbol I); assay type: in vivo, wild oat (Avena fatua); conditions: foliage application, 320 g/ha, three weeks after application
Method in brief: as §1

velvetleaf [13] = test: Test Example 4: herbicidal effect by soil treatment (Table 19, symbol M); assay type: in vivo, velvetleaf (Abutilon theophrasti); conditions: amount of applied herbicide 320 g/ha
Method in brief: as §2

false cleavers [14] = test: Test Example 5: herbicidal effect by foliage application, plastic box (Table 20, symbol Q); assay type: in vivo, false cleavers (Galium spurium); conditions: foliage application, 320 g/ha, three weeks after application
Method in brief: as §1

southern crabgrass [15] = test: Test Example 4: herbicidal effect by soil treatment (Table 19, symbol F); assay type: in vivo, southern crabgrass (Digitaria ciliaris); conditions: amount of applied herbicide 320 g/ha
Method in brief: as §2

blackgrass [16] = test: Test Example 5: herbicidal effect by foliage application, plastic box (Table 20, symbol J); assay type: in vivo, blackgrass (Alopecurus myosuroides); conditions: foliage application, 320 g/ha, three weeks after application
Method in brief: as §1

oval-leafed pondweed = test: Test Example 1: herbicidal activity, application before weed generation under submerged conditions (Table 16, symbol C); assay type: in vivo, oval-leafed pondweed (Monochoria vaginalis); conditions: amount of applied herbicide 320 g/ha
Method in brief: (§4)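 Submerged Wagner pots (alluvial soil, 4 cm water) sown with weed seeds and planted with 2.5-leaf rice seedlings; emulsifiable concentrate diluted in water applied to water surface on sowing day. Held in greenhouse at 25-30 °C; injury scored 0-5 by herbicidal rate after three weeks.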

green foxtail [17] = test: Test Example 4: herbicidal effect by soil treatment (Table 19, symbol G); assay type: in vivo, green foxtail (Setaria viridis); conditions: amount of applied herbicide 320 g/ha
Method in brief: as §2

chickweed [18] = test: Test Example 5: herbicidal effect by foliage application, plastic box (Table 20, symbol P); assay type: in vivo, common chickweed (Stellaria media); conditions: foliage application, 320 g/ha, three weeks after application
Method in brief: as §1

Italian ryegrass [19] = test: Test Example 4: herbicidal effect by soil treatment (Table 19, symbol K); assay type: in vivo, Italian ryegrass (Lolium multiflorum); conditions: amount of applied herbicide 320 g/ha
Method in brief: as §2

chickweed [20] = test: Test Example 4: herbicidal effect by soil treatment (Table 19, symbol P); assay type: in vivo, common chickweed (Stellaria media); conditions: amount of applied herbicide 320 g/ha
Method in brief: as §2

barnyard grass [21] = test: Test Example 3: herbicidal effect by foliage application, Wagner pot (Table 18, symbol H); assay type: in vivo, barnyard grass (Echinochloa crus-galli); conditions: 320 g/ha
Method in brief: as §3

Japanese bulrush = test: Test Example 1: herbicidal activity, application before weed generation under submerged conditions (Table 16, symbol B); assay type: in vivo, Japanese bulrush (Schoenoplectus juncoides); conditions: amount of applied herbicide 320 g/ha
Method in brief: as §4

blackgrass [22] = test: Test Example 4: herbicidal effect by soil treatment (Table 19, symbol J); assay type: in vivo, blackgrass (Alopecurus myosuroides); conditions: amount of applied herbicide 320 g/ha
Method in brief: as §2

redroot pigweed [23] = test: Test Example 4: herbicidal effect by soil treatment (Table 19, symbol N); assay type: in vivo, redroot pigweed (Amaranthus retroflexus); conditions: amount of applied herbicide 320 g/ha
Method in brief: as §2

late watergrass = test: Test Example 1: herbicidal activity, application before weed generation under submerged conditions (Table 16, symbol A); assay type: in vivo, late watergrass (Echinochloa oryzicola); conditions: amount of applied herbicide 320 g/ha
Method in brief: as §4

barnyard grass [24] = test: Test Example 5: herbicidal effect by foliage application, plastic box (Table 20, symbol H); assay type: in vivo, barnyard grass (Echinochloa crus-galli); conditions: foliage application, 320 g/ha, three weeks after application
Method in brief: as §1

Chinese sprangletop = test: Test Example 3: herbicidal effect by foliage application, Wagner pot (Table 18, symbol D); assay type: in vivo, chinese sprangletop (Leptochloa chinensis); conditions: 320 g/ha
Method in brief: as §3

southern crabgrass [25] = test: Test Example 5: herbicidal effect by foliage application, plastic box (Table 20, symbol F); assay type: in vivo, southern crabgrass (Digitaria ciliaris); conditions: foliage application, 320 g/ha, three weeks after application
Method in brief: as §1

Italian ryegrass [26] = test: Test Example 5: herbicidal effect by foliage application, plastic box (Table 20, symbol K); assay type: in vivo, Italian ryegrass (Lolium multiflorum); conditions: foliage application, 320 g/ha, three weeks after application
Method in brief: as §1

wild oat [27] = test: Test Example 4: herbicidal effect by soil treatment (Table 19, symbol I); assay type: in vivo, wild oat (Avena fatua); conditions: amount of applied herbicide 320 g/ha
Method in brief: as §2

For `CCCC(=O)Oc1c(C)nn(C)c(=O)c1-c1c(-c2ccc(F)cc2OC)sc2cc(Cl)ccc12` [3-044], the “L: windgrass, herbicidal effect grade” value (windgrass [1]) was 5 (Herbicidal rate of 90% or more (almost completely withered)), the “M: velvetleaf, herbicidal effect grade” value (velvetleaf [2]) was 4 (Herbicidal rate of 70% or more and less than 90%) and the “H: barnyard grass, herbicidal effect grade” value (barnyard grass [3]) was 3 (Herbicidal rate of 40% or more and less than 70%). For the same compound, the “O: lambsquarters, herbicidal effect grade” value (lambsquarters [4]) was 4 (Herbicidal rate of 70% or more and less than 90%), the “O: lambsquarters, herbicidal effect grade” value (lambsquarters [5]) was 3 (Herbicidal rate of 40% or more and less than 70%) and the “L: windgrass, herbicidal effect grade” value (windgrass [6]) was 3 (Herbicidal rate of 40% or more and less than 70%). For the same compound, the “N: redroot pigweed, herbicidal effect grade” value (redroot pigweed [7]) was 3 (Herbicidal rate of 40% or more and less than 70%), the “herbicidal effect on rice flat sedge (E)” value (rice flat sedge) was 3 (Herbicidal rate of 40% or more and less than 70%) and the “R: persian speedwell, herbicidal effect grade” value (persian speedwell [8]) was 3 (Herbicidal rate of 40% or more and less than 70%). For the same compound, the “G: green foxtail, herbicidal effect grade” value (green foxtail [9]) was 4 (Herbicidal rate of 70% or more and less than 90%), the “R: persian speedwell, herbicidal effect grade” value (persian speedwell [10]) was 3 (Herbicidal rate of 40% or more and less than 70%) and the “Q: false cleavers, herbicidal effect grade” value (false cleavers [11]) was 4 (Herbicidal rate of 70% or more and less than 90%). The “I: wild oat, herbicidal effect grade” value (wild oat [12]) was 4 (Herbicidal rate of 70% or more and less than 90%), the “M: velvetleaf, herbicidal effect grade” value (velvetleaf [13]) was 2 (Herbicidal rate of 20% or more and less than 40%) and the “Q: false cleavers, herbicidal effect grade” value (false cleavers [14]) was 4 (Herbicidal rate of 70% or more and less than 90%). The “F: southern crabgrass, herbicidal effect grade” value (southern crabgrass [15]) was 1 (Herbicidal rate of 5% or more and less than 20%), the “J: blackgrass, herbicidal effect grade” value (blackgrass [16]) was 5 (Herbicidal rate of 90% or more (almost completely withered)) and the “Herbicidal effect, C: oval-leafed pondweed” value (oval-leafed pondweed) was 0 (Herbicidal rate of 5% or less (almost no effect)). For the same compound, the “G: green foxtail, herbicidal effect grade” value (green foxtail [17]) was 1 (Herbicidal rate of 5% or more and less than 20%), the “P: chickweed, herbicidal effect grade” value (chickweed [18]) was 5 (Herbicidal rate of 90% or more (almost completely withered)) and the “K: Italian ryegrass, herbicidal effect grade” value (Italian ryegrass [19]) was 0 (Herbicidal rate of 5% or less (almost no effect)). For the same compound, the “P: chickweed, herbicidal effect grade” value (chickweed [20]) was 4 (Herbicidal rate of 70% or more and less than 90%), the “herbicidal effect on barnyard grass (H)” value (barnyard grass [21]) was 5 (Herbicidal rate of 90% or more (almost completely withered)) and the “Herbicidal effect, B: Japanese bulrush” value (Japanese bulrush) was 0 (Herbicidal rate of 5% or less (almost no effect)). For the same compound, the “J: blackgrass, herbicidal effect grade” value (blackgrass [22]) was 0 (Herbicidal rate of 5% or less (almost no effect)), the “N: redroot pigweed, herbicidal effect grade” value (redroot pigweed [23]) was 4 (Herbicidal rate of 70% or more and less than 90%) and the “Herbicidal effect, A: late watergrass” value (late watergrass) was 3 (Herbicidal rate of 40% or more and less than 70%). The “H: barnyard grass, herbicidal effect grade” value (barnyard grass [24]) was 5 (Herbicidal rate of 90% or more (almost completely withered)), the “herbicidal effect on Chinese sprangletop (D)” value (Chinese sprangletop) was 0 (Herbicidal rate of 5% or less (almost no effect)) and the “F: southern crabgrass, herbicidal effect grade” value (southern crabgrass [25]) was 3 (Herbicidal rate of 40% or more and less than 70%). For the same compound, the “K: Italian ryegrass, herbicidal effect grade” value (Italian ryegrass [26]) was 0 (Herbicidal rate of 5% or less (almost no effect)) and the “I: wild oat, herbicidal effect grade” value (wild oat [27]) was 0 (Herbicidal rate of 5% or less (almost no effect)).
